Results as given in the METLIN SMRT retention time set (Domingo-Almenara et al. 2019).

Assay: gradient 5% acetonitrile 3 min, to 50% in 2 min, to 85% in 15 min, held 3 min, 100 µL/min
Conditions: column: Zorbax Extend-C18 2.1 x 50 mm; eluents: water / acetonitrile, 0.1% formic acid
How it was run: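 The mobile phases were water and acetonitrile, each with 0.1% formic acid, pumped at 100 μL/min through a Zorbax Extend-C18 column (2.1 × 50 mm, 1.8 μm). Pure standards were injected as mixtures of ~100 molecules and detected by a quadrupole time-of-flight mass spectrometer in positive and negative ionization mode. Retention time came from computationally picked adduct peaks, each inspected by hand.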

SMILES	RP-LC retention time [s]
Cc1cc(C)cc(NC(=O)Cn2ccc3ccn(C)c3c2=O)c1	829
CCC1(CC)NC(=O)N(CC(=O)Nc2ccc(F)cc2F)C1=O	677
CCN1CCN(Cc2nc(-c3ccc(N4CCSCC4)nc3)no2)CC1	604
Cc1nc2cc(-c3noc(/C=C/c4ccco4)n3)ccc2n(C2CCCC2)c1=O	1280
O=C(CSCc1ccccc1)Nc1cc(=O)[nH]c(=O)[nH]1	629
Cc1ccsc1C(=O)NCC1CCCCC(=O)N1 (stereo not given)	640
Cc1ccc([N+](=O)[O-])cc1S(=O)(=O)N1CCN(c2cccc(Cl)c2)CC1	618
COC(=O)c1nnn(-c2cccc(C)c2C)c1C(=O)OC	878
CCC(CC)NC(=O)C1CCN(c2nc3ccc(-c4cncnc4)nc3s2)CC1	810
CC(C)NC(=O)C1CC(=O)N(C2CCCCC2)C1 (stereo not given)	657
Cc1ccc2c(c1)Oc1ccccc1N=C2	993
CCCNC(=O)C1CCCN(c2cc(=O)n(C)c(=O)n2C)C1 (stereo not given)	597
N#Cc1nnn2c1nc(N)c1c(Cl)cccc12	817
CCC(=O)N1CCCC(c2nc(CNC(=O)C(C)C)cs2)C1 (stereo not given)	632
Oc1c(CN2CCN(c3ccccc3)CC2)cc(Br)c2cccnc12	830
O=C(NCc1ccccc1)c1cc(N2CCCC2)n2nccc2n1	951
O=C(CCNc1c(-c2ccccc2)nc2cnccn12)N1CCC(N2CCCCC2)CC1	552
CCCn1cc(C(=O)Nc2ccc(F)cc2C)c2cccnc21	882
CCc1ccc(NS(=O)(=O)c2cc3n(c2)CCCN(CC)C3=O)cc1	801

SMILES	RP-LC retention time [s]
O=C(Cn1cc2c(n1)CCCC2)N1CCC(Cc2ccccc2)CC1	965
Cn1nccc1C(=O)N1CC2CN(S(=O)(=O)c3cccc(F)c3)CC(C1)O2	693
CC1CCC(NC(=O)c2nnn(Cc3cccc(F)c3)c2-n2cccc2)CC1 (stereo not given)	1160
Cc1ccc(NC(=O)N(C)CC2CCOC2)cc1F (stereo not given)	722
CCn1c(N2CCCC(C(=O)NCc3cccc(OC)c3)C2)cc(=O)n(C)c1=O (stereo not given)	764
CCOc1ccc(C2C(=O)N(C3CCCCC3)CC(=O)N2Cc2ccco2)cc1OC (stereo not given)	879
Cc1ccccc1NC(=O)c1c(NC(=O)CCC(=O)O)sc2c1CCCC2	939
CCC(=O)N(C1CCOCC1)C1CCN(S(=O)(=O)c2ccc(Cl)c(C)c2)CC1	954
O=C(CN1C[C@H]2C[C@H](C1)[C@H]1CCCC(=O)N1C2)NCC1CCCCC1	612
Cn1c(-c2ccccc2)c(C(=O)C(=O)N2CCOCC2)c2ccccc21	800
CCOC(=O)C(C)NC(=O)N1CCN(c2nc3ccccc3n2CC)CC1 (stereo not given)	609
CCOC(=O)c1ccc(NS(=O)(=O)c2cc3n(c2)CCN(C(C)C)C3=O)cc1	777
Cc1[nH]c(C)c(S(=O)(=O)N2CCN(c3ccccn3)CC2)c1C(=O)N1CCCC1	586
O=C(CCc1ccccc1)N1CCN(C(=O)c2nnn3c2COC(c2ccccc2)C3)CC1 (stereo not given)	891
O=C(C1CCN(c2cnc(N3CCCC3)nc2)CC1)N1CCCCC1	616
O=C(CSc1nnc(COc2ccccc2)o1)NCc1ccco1	753
Cc1ccc(CN2CC(n3c(C)cnc3-c3ccccc3)C2)s1	555
CC1=C(c2ccc(C)cc2)S(=O)(=O)N=C1N1CCCN(C(=O)CC2CCCCC2)CC1	962
O=C(CN1CCN(Cc2ccccc2F)C1=O)N1CCN(C2CCCCC2)CC1	613

Results, then the molecule that gave them:

RP-LC retention time [s]	SMILES
703	Cn1cc(CC(=O)Nc2ccc(F)cc2)c2cccnc21
795	CCC(C)C(=O)N1CCCN(C2=NS(=O)(=O)C(c3ccc(F)cc3)=C2C)CC1 (stereo not given)
916	CCOc1ccc(-c2noc(Cn3cnc4c(oc5ccccc54)c3=O)n2)cc1OC
734	CCOC(=O)c1ccc(NS(=O)(=O)c2c[nH]c3ncccc23)cc1
800	Brc1ccc(C(c2nnc(-c3ccccc3)o2)N2CCN(c3ccccn3)CC2)cc1 (stereo not given)
1190	Cc1ccc(N2CCN(C(=O)c3nnc(-c4ccc(S(=O)(=O)N5CCCC5)cc4)o3)CC2)c(C)c1
892	Cc1cc(=O)n(CC(=O)Nc2cccc(C)c2C)c(NCCCc2ccccc2)n1
966	CN(CCc1noc(COc2ccccc2)n1)C(=O)Nc1ccc(F)c(Cl)c1
675	CC(O)(CNC(=O)c1cnc2ccccc2n1)c1ccco1 (stereo not given)
746	CCCNC(=O)c1nc(Nc2ccc(F)cc2)c2ccccc2n1
778	CCS(=O)(=O)N1CC(=O)N(c2ccc(F)cc2)C(C)(C(=O)NCc2ccccc2)C1 (stereo not given)
915	COc1ccc(OC)c(NC(=O)c2cnc(-c3ccc(F)cc3)nc2-c2ccncc2)c1
1040	CSc1cccc(NC(=O)CCCn2nc(-n3cccc3)c3c(C)cc(C)nc32)c1
691	COCCCNC(=O)N1CC(n2cc(COc3ccc(F)cc3)nn2)C1
717	O=C(Nc1cnc(N2CCCC2)nc1)c1ccccc1Br
931	Cc1c(C(=O)N2CCOCC2)cnn1-c1cc(-c2nc(C(C)(C)C)no2)ccn1
704	Cc1ccsc1C(=O)NC1CCN(c2cc(-c3ccccc3)[nH]n2)C1 (stereo not given)
786	Cc1ccc(Cl)c2c1NC(=O)C2(O)CC(=O)c1ccc(F)cc1 (stereo not given)
677	COc1ccc(C2C(C(=O)Nc3ccccn3)c3cc(OC)c(OC)cc3C(=O)N2C)cc1OC (stereo not given)
767	COCCn1ccc2nc(C)c(C(=O)NCCc3c[nH]c4ccccc34)cc2c1=O
1070	Cc1cccc(-c2noc(Cn3c(=O)n(-c4ccccc4C)c(=O)c4sccc43)n2)c1
736	COc1ccc(CC(=O)NCC2(c3cccs3)CC2)cc1OC
1110	O=C(Nc1ccc(Oc2ccc(NC(=O)Nc3ccc([N+](=O)[O-])cc3)cc2)cc1)Nc1ccc([N+](=O)[O-])cc1
765	CCC(C)C(NC(=O)c1cccc(C)c1)C(=O)Nc1nc2ccccc2[nH]1 (stereo not given)
1210	COc1cccc(NC(=O)CC(=O)Nc2ccc3nc4n(c(=O)c3c2)CCCCC4)c1
708	CSc1ccc(-c2nc3cnccn3c2Nc2ccc(C(=O)N3CCOCC3)cc2)cc1

RP-LC retention time [s]	SMILES
1000	O=C(Nc1ccc(Cl)cc1)c1cccn1Cc1noc(C2CC2)n1
579	COc1ccc(CN2CC[C@]3(CO)CN(Cc4ccccc4)C[C@@H]3C2)c(Cl)c1OC
888	Cc1ccc(N2CCC(NC(=O)c3ccc(Cl)s3)C2=O)cc1 (stereo not given)
940	CN(C)S(=O)(=O)c1ccc(-c2nnc(C(=O)NCc3ccc(C(F)(F)F)cc3)o2)cc1
961	COc1cccc(-c2noc(C3CCCN3C(=O)Nc3ccccc3)n2)c1 (stereo not given)
985	C=CCN1C(=O)COc2ccc(-c3nc(NC(=O)c4ccc(OC)c(OC)c4)sc3C)cc21
713	CCOC(=O)C1=C(CN2CCN(Cc3ccccc3)CC2)NC(=O)NC1c1ccc(OC(C)C)cc1 (stereo not given)
719	Cc1cc(C)cc(Nc2c(-c3cccc(O)c3)nc3ncccn23)c1
1130	Cc1cc(C(=O)Nc2ccc(F)cc2F)nc2cc(-c3ccco3)nn12
875	CC1Cc2cc(-c3cc(CNC(=O)c4ccccc4C(F)(F)F)no3)ccc2O1 (stereo not given)
753	COC(=O)c1ccc2c(=O)n(-c3ccc(Cl)cc3)c(N3CCN(c4ccccn4)CC3)nc2c1
1100	CC1=NS(=O)(=O)N(Cc2ccccc2)C=C1C(=O)OCc1ccc(F)c(F)c1
980	CN(CCc1noc(COc2ccc(F)cc2)n1)C(=O)Nc1ccc(Br)cc1
918	Cc1ccc2c(c1)N(S(C)(=O)=O)CCC(C(=O)Nc1ccccc1F)O2 (stereo not given)
678	COc1cc(C)c(C)cc1S(=O)(=O)Nc1ccc2c(c1)C(=O)NCCO2
834	CCOC(=O)c1nc(NCc2ccccc2Cl)c2ccccc2n1
799	Cc1ccc(NC(=O)N2CCN(c3nc(N)nc4sc(-c5cccnc5)nc34)CC2)cc1
524	CCn1c(CCc2cccc(NS(=O)(=O)c3cnc[nH]3)c2)nc2ccccc21
757	CC(NC(=O)c1ccco1)c1nc(-c2ccc(N3CCOCC3)cc2)no1 (stereo not given)
1100	Clc1cccc(-n2cc(-c3noc(-c4ccc5c(c4)OCO5)n3)nn2)c1
804	COc1ccc(C)cc1NS(=O)(=O)c1cc(-c2c(C)noc2NC(C)=O)ccc1C
700	COc1ccc(CCNC(=O)CSc2nnc(NC(=O)CC(C)C)s2)cc1OC
926	COc1ccc(-c2csc(NC(=O)CS(=O)(=O)c3ccc(Cl)cc3)n2)cc1OC
1230	CC1CCCCN1CCNC(=O)c1ccc(-c2ccnc(N3CCCC3)n2)cc1 (stereo not given)
1110	COc1ccc(NC(=O)Cc2c(C)nn(-c3nc(-c4ccccc4)cs3)c2C)cc1
708	CCCn1cnc2cc(-c3noc(C(NC(=O)c4ccco4)C(C)C)n3)ccc21 (stereo not given)
